Reference: US20120177701A1, “COMPOSITIONS COMPRISING IMMUNOSTIMULATORY NUCLEIC ACIDS AND RELATED METHODS” (priority 2010, published 2012)

Legend:
human TLR8 = target: T1, human TLR8 (Homo sapiens, UniProt Q9NR97); experiment: HEK-Blue hTLR8 NF-kB-inducible SEAP reporter assay (TLR8 activation); type: cell-based
T1 construct: host or cells: HEK293 (HEK-Blue hTLR8) with NF-kB-inducible SEAP reporter
T1 sequence (Q9NR97 27-1041): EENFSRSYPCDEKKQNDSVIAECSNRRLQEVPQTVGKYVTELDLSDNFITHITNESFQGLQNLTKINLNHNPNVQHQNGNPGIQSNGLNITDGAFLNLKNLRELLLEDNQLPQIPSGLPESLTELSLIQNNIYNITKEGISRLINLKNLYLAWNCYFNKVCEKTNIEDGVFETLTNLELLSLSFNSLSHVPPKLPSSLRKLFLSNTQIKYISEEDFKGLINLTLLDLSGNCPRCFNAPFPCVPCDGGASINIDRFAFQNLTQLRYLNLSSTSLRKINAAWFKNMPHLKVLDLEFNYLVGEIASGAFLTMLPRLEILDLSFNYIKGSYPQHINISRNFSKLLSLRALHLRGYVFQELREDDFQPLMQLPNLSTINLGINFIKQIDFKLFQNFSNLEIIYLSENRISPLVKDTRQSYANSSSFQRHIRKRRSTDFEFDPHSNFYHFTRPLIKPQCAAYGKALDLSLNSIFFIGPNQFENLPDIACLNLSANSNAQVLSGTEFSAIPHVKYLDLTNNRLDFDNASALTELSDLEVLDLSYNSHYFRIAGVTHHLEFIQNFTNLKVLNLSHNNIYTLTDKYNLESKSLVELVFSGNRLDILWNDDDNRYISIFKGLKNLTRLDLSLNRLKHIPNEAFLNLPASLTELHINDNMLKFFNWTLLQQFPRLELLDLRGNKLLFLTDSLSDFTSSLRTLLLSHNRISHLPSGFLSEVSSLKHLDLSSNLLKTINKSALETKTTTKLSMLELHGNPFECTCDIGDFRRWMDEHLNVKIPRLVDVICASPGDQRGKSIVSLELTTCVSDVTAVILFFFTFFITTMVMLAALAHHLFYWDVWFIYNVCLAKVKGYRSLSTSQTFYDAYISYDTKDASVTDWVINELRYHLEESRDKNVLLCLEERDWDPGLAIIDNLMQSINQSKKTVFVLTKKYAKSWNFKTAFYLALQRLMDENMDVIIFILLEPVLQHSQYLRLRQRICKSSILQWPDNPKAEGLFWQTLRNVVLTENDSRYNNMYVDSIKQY

HEK-Blue™ Null = type: cell-based, human
murine splenocytes = experiment: Immune cell activation (CD69 expression, FACS) in murine splenocytes; type: cell-based, mouse; details: 20 hours
Method: In addition, upon removal of the supernatant at 20 hours post-incubation, the mouse cells were stained for the following cell markers: GR1, F4/80, CD11c, CD220, CD3, Ly49b, and CD69, and analyzed by FACS. Different immune cell populations were distinguished as follows: macrophages (F4/80^+/GR1^−); plasmacytoid dendritic cells or pDC (CD11c^+/CD220^+); B cells (CD220^+/CD11c^−); NK (CD3^−/Ly49b^+); myeloid DC or mDC ([…]); granulocytes (eosinophils) (GR1^+high/F4/80^−); T cells (CD3^+); and NKT cells (CD3^+/Ly49b^+). All immune cell populations were quantified by the expression of CD69 (am early activation marker).

[1] = test system: primary human lymphocytes; type: cell-based; details: 20 hours
[2] = 200 nM, compared with R848 1 μM

Substance: 5′-GAGAUGUUAUUUUGUUUUUAAUAUUUC-3′ (phosphorothioate backbone, further chemistry not given here) [SL-0001, phosphorothioated 27-ribonucleotide from the 3′-terminus of Chikungunya virus strain TSI-GSD-218, bases 12010-12036]
- TLR8 activation (fold increase of SEAP induction over the background), described in words (human TLR8): stronger levels of TLR8 activation
- concentration at which TLR8 activation was detected starting (human TLR8): 40 nM
- activation of SEAP expression (HEK-Blue™ Null): No activation of SEAP expression
- activation of immune cell populations (CD69 expression) (murine splenocytes; 200 nM DOTAP-complexed): induced activation in most of the tested immune cell populations
- immune cell activation compared with R848 and control oligonucleotide (murine splenocytes; 200 nM DOTAP-complexed, R848 1 μM): at least comparable to that generated by treatment with 1 μM of R848, and usually exceeded the effects exhibited by the control oligonucleotide R-0006
- NKT cell activation (CD69) (murine splenocytes; [2]): exceeded the activation observed for R848
- T cell activation (CD69) (murine splenocytes; [2]): exceeded the activation observed for R848
- granulocyte activation (CD69) (murine splenocytes; [2]): exceeded the activation observed for R848
- macrophage activation (CD69) (murine splenocytes; 200 nM, compared with R-0006): especially higher than the activation observed for R-0006
- 11-12(p40) induction [1]: significant levels
- IFNγ induction [1]: significant levels
- IL-4 induction (Th2-type cytokine) [1]: insignificant
- IL-5 induction (Th2-type cytokine) [1]: insignificant
- IL-6 induction [1]: significant levels
- IL-10 induction [1]: significant levels
- IL-23 induction [1]: significant levels
- TNFα induction [1]: significant levels
